Like-named read-outs stand apart in the source and are kept apart here.
Experiments:
human CB1 receptors = biological target: T1, human CB1 receptors (Homo sapiens, UniProt P21554); assay: In vitro cannabinoid-CB1 receptor (ant)agonism, [3H]-arachidonic acid release in CHO cells; assay type: cell-based
T1 construct: expressed in transfected cells; host or cells: CHO cells
Procedure: In vitro cannabinoid-CB1 receptor (ant)agonism was assessed with human CB1 receptors cloned in CHO cells. CHO cells were grown in a DMEM culture medium, supplemented with 10% heat-inactivated fetal calf serum. Medium was aspirated and replaced by DMEM, without fetal calf serum, but containing [^3H]-arachidonic acid and incubated overnight in a cell culture stove (5% CO2/95% air; 37° C.; water-saturated atmosphere). During this period [^3H]-arachidonic acid was incorporated in membrane phospholipids. On the test day, medium was aspirated and cells were washed three times using 0.5 ml DMEM, containing 0.2% BSA. CB1 agonist stimulation lead to activation of PLA2 followed by release of [^3H]-arachidonic acid into the medium. This CB1 agonist-induced release was concentration-dependently antagonized by CB1 receptor antagonists, such as rimonabant.

[1] = biological target: T2, human cannabinoid CB1 receptors (Homo sapiens, UniProt P21554); assay: In vitro affinity for cannabinoid-CB1 receptors ([3H]CP-55,940 radioligand binding, CHO cell membranes)
T2 construct: expressed in transfected cells
Procedure: (§1) In vitro affinity for cannabinoid-CB1 receptors was determined using membrane preparations of CHO cells in which human cannabinoid CB1 receptors were stably transfected in conjunction with [^3H]CP-55,940 as radioligand. After incubation of a freshly prepared cell membrane preparation with the [^3H]-ligand, with or without addition of compounds of the invention, separation of bound and free ligand was performed by filtration over glassfiber filters. Radioactivity on the filter was measured by liquid scintillation counting.

[2] = biological target: T3, human cannabinoid CB2 receptors (Homo sapiens, UniProt P34972); assay: In vitro affinity for cannabinoid-CB2 receptors ([3H]CP-55,940 radioligand binding, CHO cell membranes)
T3 construct: expressed in transfected cells
Procedure: as §1, with “cannabinoid-CB2 receptors:” for “cannabinoid-CB1 receptors”, “CB2” for “CB1”

[3] = human CB1 receptors cloned in CHO cells, [3H]-arachidonic acid release
[4] = membranes of CHO cells stably transfected with human CB1, radioligand [3H]CP-55,940, mean of at least three independent experiments, read-out: receptor binding Human CB1 [^3H]-CP-55,940 pKi (converted)
[5] = membranes of CHO cells stably transfected with human CB2, radioligand [3H]CP-55,940, mean of at least three independent experiments, read-out: receptor binding Human CB2 [^3H]-CP-55,940 pKi (converted)

T2 sequence (P21554 whole entry): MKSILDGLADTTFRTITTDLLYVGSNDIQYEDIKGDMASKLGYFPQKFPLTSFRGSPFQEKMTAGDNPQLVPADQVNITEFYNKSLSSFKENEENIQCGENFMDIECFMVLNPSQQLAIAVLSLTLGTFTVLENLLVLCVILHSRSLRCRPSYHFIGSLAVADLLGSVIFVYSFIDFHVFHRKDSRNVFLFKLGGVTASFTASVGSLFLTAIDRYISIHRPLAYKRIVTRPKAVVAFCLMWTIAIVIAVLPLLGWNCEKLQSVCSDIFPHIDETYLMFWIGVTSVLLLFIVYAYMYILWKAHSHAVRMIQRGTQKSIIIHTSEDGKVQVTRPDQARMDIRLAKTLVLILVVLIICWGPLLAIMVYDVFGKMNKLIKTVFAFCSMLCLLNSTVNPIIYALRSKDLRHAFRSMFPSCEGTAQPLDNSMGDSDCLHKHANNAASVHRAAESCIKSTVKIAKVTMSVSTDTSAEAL
T1 sequence (P21554 whole entry): as above
T3 sequence (P34972 whole entry): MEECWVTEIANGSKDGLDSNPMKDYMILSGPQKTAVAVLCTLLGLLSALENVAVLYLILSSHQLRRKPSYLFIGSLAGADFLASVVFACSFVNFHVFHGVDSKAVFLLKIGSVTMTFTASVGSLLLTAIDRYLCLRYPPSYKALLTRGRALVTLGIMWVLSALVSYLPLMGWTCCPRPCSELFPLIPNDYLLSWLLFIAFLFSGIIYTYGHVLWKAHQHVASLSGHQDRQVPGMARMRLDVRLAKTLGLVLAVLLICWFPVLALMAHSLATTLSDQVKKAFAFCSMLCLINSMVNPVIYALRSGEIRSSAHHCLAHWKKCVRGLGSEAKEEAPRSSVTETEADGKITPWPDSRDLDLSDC

| SMILES | EC50 (human CB1 receptors) | Ki [1] | Ki [2] | functional activity h-CB1 agonistic activity [^3H]-Arachidonic acid pEC50 (human CB1 receptors; [3]) | Ki [1, 4] | Ki [2, 5] | EC50 (human CB1 receptors; human CB1 receptors cloned in CHO cells, [3H]-arachidonic acid release, read-out: functional activity h-CB1 agonistic activity [^3H]-Arachidonic acid pEC50 (converted)) |
| --- | --- | --- | --- | --- | --- | --- | --- |
| CCCCC1=NN(C(=O)N[C@@H]2C[C@H]3CC[C@H]2C3)C(C)(C)C1c1ccccc1 (relative stereo) [Compound 19, N-(rel-exo-bicyclo[2.2.1]hept-2-yl)-3-(n-butyl)-5,5-dimethyl-4-phenyl-4,5-dihydro-(1H)-pyrazole-1-carboxamide] | 0.1 µM | 0.0251 µM | 0.00794 µM | – | – | – | – |
| CCCCC1=NN(C(=O)N[C@H]2C[C@H]3CC[C@]2(C)C3(C)C)C(C)(C)C1c1ccccc1 (stereo partly drawn) [Compound 2, N-[Endo-(1R,2S,4R)-1,7,7-trimethylbicyclo[2.2.1]hept-2-yl]-3-(n-butyl)-5,5-dimethyl-4-phenyl-4,5-dihydro-(1H)-pyrazole-1-carboxamide] | – | 0.0126 µM | 0.00398 µM | 7.4 | – | – | – |
| CCCCC1=NN(C(=O)NC(C)(C)c2ccccc2)C(C)(C)C1c1ccccc1 (stereo not drawn) [Compound 1, N-(1-methyl-1-phenyl-ethyl)-3-(n-butyl)-5,5-dimethyl-4-phenyl-4,5-dihydro-(1H)-pyrazole-1-carboxamide] | – | – | – | 8.1 | 0.00794 µM | 0.00398 µM | – |
| CCCCC1=NN(C(=O)CC(C)CC(C)(C)C)C(C)(C)C1c1ccccc1 (mixture of isomers) [Compound 39, [3-(n-butyl)-5,5-dimethyl-4-phenyl-4,5-dihydro-(1H)-pyrazol-1-yl]-3,5,5-trimethylhexan-1-one] | – | – | – | – | 0.1 µM | 0.0126 µM | 0.0631 µM |

— patent US8410135B2, “4,5 dihydro-(1H)-pyrazole derivatives as cannabinoid CB1 receptor modulators” (Solvay Pharmaceuticals B.V., priority 2007, dated 2013)
